Data on three molecules can be found in publication PMC6590088 (Science signaling, 2010).

The test system of one assay is BKS SH2 domain. Put plainly: Peptide-binding experiments, BKS SH2 domain. Conditions: table S2B.
In a further assay the target is T1, BRDG1 SH2 domain (WT) (Homo sapiens, UniProt Q9ULZ2).
T1 sequence (Q9ULZ2 177-280 limits assumed): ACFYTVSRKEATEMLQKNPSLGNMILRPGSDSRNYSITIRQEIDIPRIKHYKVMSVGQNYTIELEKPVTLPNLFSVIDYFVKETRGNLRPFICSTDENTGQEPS
Put plainly: Fluorescence polarization binding assay, wild-type BRDG1 SH2 domain. Conditions: table S2B.

The target in assay [1] is NTAL pTyr136 peptide with Leu+4 replaced by Ala (human). Put plainly: fluorescence polarisation. On the technique in general: Polarisation of emitted light reports the rotation of a fluorescent probe.
In assay [2] the target is T2, BRDG1 SH2 domain (Asp167-Ser285) C269A (human, UniProt Q9ULZ2 167-285, C269A).
T2 sequence (looked up): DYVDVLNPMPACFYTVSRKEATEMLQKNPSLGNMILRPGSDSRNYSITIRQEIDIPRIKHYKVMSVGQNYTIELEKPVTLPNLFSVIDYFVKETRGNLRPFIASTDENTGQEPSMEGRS
Put plainly: crystal structure.

Non-standard residues stand in square brackets, D forms with d. No end group written: not given here. pY = N[C@@H](Cc1ccc(OP(=O)(O)O)cc1)C(=O)O

Consider NSpY^136ENVLICK [NTAL-pTyr^136], for which the “binding to the BKS SH2 domain (in words)” value in the assay on BKS SH2 domain is “bound strongly”. Also, the “affinity for the BRDG1 SH2 domain (in words)” value at BRDG1 SH2 domain (WT) was “high affinities”.

B1: BRDG1 SH2 domain, wild type (fluorescence polarization) (domain or fragment)
chain: ACFYTVSRKEATEMLQKNPSLGNMILRPGSDSRNYSITIRQEIDIPRIKHYKVMSVGQNYTIELEKPVTLPNLFSVIDYFVKETRGNLRPFICSTDENTGQEPS
With B1, the fold reduction in affinity relative to the wild-type NTAL peptide in assay [1] came to 12 fold.

B2: NTAL phosphopeptide ANSpY136ENVLIAK-NH2 (peptide)
peptide: ANS[pY]ENVLIAK-NH2
modifications: N-terminus assumed
SMILES: CC[C@H](C)[C@H](NC(=O)[C@H](CC(C)C)NC(=O)[C@@H](NC(=O)[C@H](CC(N)=O)NC(=O)[C@H](CCC(=O)O)NC(=O)[C@H](Cc1ccc(OP(=O)(O)O)cc1)NC(=O)[C@H](CO)NC(=O)[C@H](CC(N)=O)NC(=O)[C@H](C)N)C(C)C)C(=O)N[C@@H](C)C(=O)N[C@@H](CCCCN)C(N)=O
Regarding B2, the binding result in assay [2] is “binds”.
